Test results: patent publication EP4796536A1, “CRYSTAL FORMS OF COMPOUND HAVING FUSED FIVE- AND SIX-MEMBERED RINGS, PREPARATION METHOD THEREFOR, AND USE THEREOF” (Hangzhou Polymed Biopharmaceuticals, Inc., priority 2023, dated 2025)

Assays:
IRAK4 kinase = biological target: T1, IRAK4 kinase (Homo sapiens, UniProt Q9NWZ3); assay: Inhibition of IRAK4 kinase activity, fluorescence microfluidic mobility assay; format: biochemical; details: IRAK4 6 nM, ATP 10 µM, substrate peptide FAM-P8 3 µM
T1 construct: purchased Carna 09-145
T1 sequence (Q9NWZ3 1-460): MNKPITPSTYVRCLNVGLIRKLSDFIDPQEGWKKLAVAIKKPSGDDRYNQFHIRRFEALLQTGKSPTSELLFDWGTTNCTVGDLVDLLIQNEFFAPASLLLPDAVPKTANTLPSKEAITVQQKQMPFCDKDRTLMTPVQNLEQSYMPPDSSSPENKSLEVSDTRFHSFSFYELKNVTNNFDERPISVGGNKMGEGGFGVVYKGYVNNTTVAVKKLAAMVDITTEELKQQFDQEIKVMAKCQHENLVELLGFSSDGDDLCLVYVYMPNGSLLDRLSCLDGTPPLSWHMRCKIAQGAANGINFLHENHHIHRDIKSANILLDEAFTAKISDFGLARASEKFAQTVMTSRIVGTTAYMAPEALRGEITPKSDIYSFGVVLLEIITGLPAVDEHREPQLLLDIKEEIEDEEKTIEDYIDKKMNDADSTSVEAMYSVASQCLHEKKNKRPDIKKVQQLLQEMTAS
Method: Based on the experimental method of fluorescence microfluidic mobility assay, the IC50 value of competitive binding of IRAK4 kinase to ATP by the compound was determined. The initial detection concentration of the compound was 10 µM, which was 4-fold serially diluted to […] and assayed in duplicate. In this case, commercially available staurosporine was the standard control for the assay.
• 1) IRAK4 kinase was dissolved in kinase buffer (50 mM HEPES pH 7.5, 10 mM MgCl2, 2 mM DTT, and 0.01% Brij-35) at a final concentration of 6 nM. • 2) The substrate peptide FAM-P8 and ATP were dissolved in the above kinase buffer, and the final concentrations of the substrate peptide FAM-P8 and ATP for IRAK4 were 3 µM and 10 µM, respectively. • 3) Dilution of compound: the compound was first diluted to 50 µM, and then 4-fold serially diluted with DMSO. […] After incubation at 28°C for 1 hour, 25 µL of stop solution (100 mM HEPES pH 7.5, 50 mM EDTA, 0.2% Coating Reagent #3, and 0.015% Brij-35) was added to each well to terminate the reaction. • 5) Data reading: CaliperEZ Reader II instrument was used to read the conversion rate data. […]

[1] = biological target: T2, IRAK4 protein in THP-1 cells (Homo sapiens, UniProt Q9NWZ3); assay: IRAK4 protein degradation in THP-1 cells by Western Blot; format: cell-based; details: 24 hours after administration
T2 construct: endogenous in cells; host or cells: THP-1
T2 sequence (Q9NWZ3 1-460): T1 sequence (Q9NWZ3 1-460)
Method: 2.2.2.1 Based on the experimental method of immunoblot, i.e., Western Blot, THP-1 cell samples processed by gel electrophoresis were stained with specific antibodies, and the degrading activity of the compound on the IRAK4 protein in THP-1 cells was determined by analyzing the position and depth of staining. The detection concentrations of the compound were 0 µM, 0.3 µM, 1 µM, and 3 µM, and the compound was used to treat the cells for 8 hours, 16 hours, 24 hours, and 48 hours. In this case, glyceraldehyde-3-phosphate dehydrogenase (GAPDH) was the internal reference protein for the assay.
• Running buffer: 50 mL of MOPS SDS Running Buffer (20X) and 50 mL of 20× TBS Tween-20 buffer were diluted to 1L with deionized water as running buffer; • 5% skim milk (w/v): 5% skim milk was prepared by diluting 2.5 g of skim milk with 50 mL of 1× TBS Tween-20 buffer; • 5% BSA (w/v): 5% BSA was prepared by diluting 2.5 g of BSA with 50 mL of 1× TBS Tween-20 buffer; • Anti-IRAK4 antibody was diluted at 1:1000 with 5% BSA into a primary antibody working solution; • Goat Anti-Rabbit IgG H&L (HRP) was diluted at 1:2000 with 5% BSA into a secondary antibody working solution; • Goat Anti-Mouse IgG H&L (HRP) was diluted at 1:2000 with 5% BSA into a secondary antibody working solution. […]

COc1cc2nn(C3CC4(CCN(C(=O)C5CCN(c6ccc7c(c6)C(=O)N(C6CCC(=O)NC6=O)C7=O)CC5)CC4)C3)cc2cc1NC(=O)c1cccc(C(F)(F)F)n1 (centres unmarked) [X]
IC50 (IRAK4 kinase): 26 nM | DC50 [1]: 4.02 nM
